{
  "source": "patent US12594258B2",
  "about": "“Inhibitors of MHC-I Nef downmodulation for treating HIV” (priority 2019, dated 2026)",
  "key": {"primary CD4+ T cells": {"test_system": "primary CD4+ T cells", "assay": "MTT and flow cytometric viability assays in primary CD4+ T cells", "assay_type": "cell-based, human", "experimental": "CD4^+ T cells were plated at a density of 1×10^5 cells in 200 μL R10-50 in flat-bottom 96-well plates 4 days post-stimulation with PHA. Cells were exposed to titrations of plecomacrolides or solvent controls for 72 hours in culture, at which point viability was assessed relative to solvent by MTT assay in experimental duplicates. Equal volumes of cell culture medium containing CD4^+ T cells were pelleted in 96-well round-bottom plates and incubated in 4.5 mg/mL MTT (Fisher, M6494) in R10 with no Phenol Red at 37° C. until the purple formazan signal was clearly visible. The absorbance of cell pellets resuspended in DMSO was measured at 595 nm on a Molecular Devices Emax precision microplate reader and compared a standard curve of known viable cell numbers to ensure the experimental samples fell within the linear range of the assay."}, "[1]": {"test_system": "lysosomal pH in human monocyte-derive macrophages (MDMs)", "assay": "Lysosensor Yellow/Blue dextran analysis of lysosomal pH in MDMs", "assay_type": "cell-based", "conditions": "1 hour, read-out: EC50 for lysosome neutralization", "experimental": "To measure the lysosomal pH in human monocyte-derive macrophages (MDMs), MDMs adhered to 24-well plates were exposed to 500 μg/mL Lysosensor Yellow/Blue dextran, 10,000 MW (ThermoFisher, L22460) in R10 for 24 hours. MDMs were then exposed to plecomacrolides for 1 hour and harvested with 0.05% Trypsin-EDTA (Gibco 25300054). Cells were washed twice in FACS buffer, and analyzed on a MoFlo Astrios flow cytometer, with blue signal excited from a 354 nm laser and yellow signal excited from a 405 nm laser. A standard curve was generated by resuspending MDMs in equilibration buffers of known pH as previously described. The ratio of blue:yellow fluorescence intensity was calculated for each cell, the median blue:yellow ratio for the cell population for each condition was obtained, and the lysosomal pH in MDMs was calculated for each condition using the standard curve.\nLysosensor Yellow/Blue Dextran Analysis of Lysosomal pH. To measure the lysosomal pH in human MDMs, MDMs adhered to 24-well plates were exposed to 500 μg/mL Lysosensor Yellow/Blue dextran, 10,000 molecular weight (MVV) in R10 for 24 h. MDMs were then exposed to plecomacrolides for 1 h and harvested with 0.05% Trypsin-(ethylenedinitrilo)tetraacetic acid (EDTA). Cells were washed twice in FACS buffer, and analyzed on a flow cytometer, with blue signal excited from a 354-nm laser and yellow signal excited from a 405-nm laser. A standard curve was generated by resuspending MDMs in equilibration buffers of known pH. The ratio of blue:yellow fluorescence intensity was calculated for each cell, the median blue:yellow ratio for the cell population for each condition was obtained, and the lysosomal pH in MDMs was calculated for each condition using the standard curve."}, "[2]": {"test_system": "ARF-1:AP-1:Nef:MHC-I complex", "assay": "Differential scanning fluorimetry (DSF) thermal stability assay", "assay_type": "binding", "conditions": "1-hour incubation, compared to solvent control", "description": "The His6- and GST-tagged AP-1 core, mouse AP1M1 (157-423) (referred as μ1-CTD), human Arf1 (17-181)-Q71L, human MHC-I (338-365)-NL4-3 Nef, HIV-1 NL4-3 Nef constructs and protein purification were previously described. For GST pull down assay, codon-optimized human MHC-I (338-365) was subcloned into pGST parallel2 vector using BamHI/Xhol sites, fused an N-terminal GST tag and a TEV cleavage site. PCR encoding HIV-1 Nef or SlVsmm Nef fused with GFP was subcloned into LIC 2BT vector (Macrolab), expressed as a TEV-cleavable N-terminal His6 tag and C-terminal uncleavable GFP tag.\nRecombinant AP-1 core was mixed with Arf1-GTP and MHC-I-Nef at the molar ratio of 1:4:6, then incubated at 4° C. overnight. […]\nDSF assays were performed using a Stratagene Mx3000P RT-PCR (Stratagene, La Jolla, CA) to monitor protein unfolding by the florescence increasing of SYPRO Orang (Invitrogen, Carlsbad, Calif.). […] The Fluorescent intensity was measured using the SYBR green filter over the temperature range of 25 to 90° C. in 1 degree/min increments. After subtracting fluorescence from DMSO control reaction without protein, the average fluorescent intensities were plotted as a function of temperature. […] The fluorescence intensity (before post-peak region) was fitted to Boltzmann equation to obtain melting temperature (Tm)."}, "[3]": {"assay": "CMA concentration in mouse plasma and lymph nodes by mass spectrometry", "assay_type": "in vivo, mice", "conditions": "2 hours after the final dose", "experimental": "FIG. 8A is a schematic representation of experiments for FIG. 8B-D. Five mice per group received injections of CMA every 2 days for 10 doses. Blood plasma and lymph nodes were harvested from mice sacrificed 2 hours after the final injection.\nFIG. 8D is a summary graph of mass spectrometry data quantifying the concentration of CMA in blood plasma from mice in each Group A and Group B.\nFIG. 8E is a summary graph of mass spectrometry data quantifying the concentration of CMA in lymph nodes from mice in each Group A and Group B. Points represent the 5 individual mice within each group. LOD=limit of detection. Open circles represent samples with CMA below the limit of detection.\nMouse in vivo Assays. To further examine the tolerability of CMA, preliminary studies were performed in two groups of mice injected with different doses of CMA every other day for 18 days (FIG. 8A). […] In a separate experiment, plasma harvested from treated mice inhibited Nef in our in vitro assay (FIG. 8F). Taken together, these promising preliminary studies provide evidence that CMA is both efficacious and tolerable in vivo."}},
  "note": "pEC50: −log10 of the molar value.",
  "data": [
    {"smiles": "C/C=C/[C@H]1O[C@@](O)([C@@H](C)[C@H](O)[C@H](C)[C@H]2OC(=O)/C(OC)=C/C(C)=C/[C@@H](C)[C@@H](O)[C@@H](CC)[C@@H](O)[C@H](C)C/C(C)=C/C=C/[C@@H]2OC)C[C@@H](O[C@H]2C[C@@H](O)[C@H](OC(N)=O)[C@@H](C)O2)[C@@H]1C", "note": "[CMA, concanamycin A]", "values": [
      {"measurement": "viability", "setting": "primary CD4+ T cells; 0.5 nM, 24-h incubation", "value": 95, "unit": "%"},
      {"measurement": "difference between the 50% effective and toxic concentrations (EC50 and TC50)", "setting": "primary CD4+ T cells; Nef activity 24 hours, viability 72 hours", "value": 11, "unit": "fold"},
      {"measurement": "pEC50", "setting": "[1]", "value": 7.90},
      {"measurement": "change in Tm of complex components", "setting": "[2]", "value": "No significant changes in Tm"},
      {"measurement": "drug concentrations in plasma and lymph nodes", "setting": "[3]", "value": "higher than those required to counteract Nef activity in vitro"},
      {"measurement": "restoration of CD4 to the cell surface of Nef-expressing cells", "setting": "HIV Nef; 2.5 nM and 0.5 nM", "value": "neither dose of CMA restored CD4"},
      {"measurement": "restoration of cell-surface MHC-I in Nef-expressing cells", "setting": "HIV Nef; 2.5 nM and 0.5 nM", "value": "restored equally in both conditions"},
      {"measurement": "Nef-mediated degradation of HLA-A2 and CD4 (Western blot)", "setting": "HIV Nef; high dose (2.5 nM)", "value": "inhibited Nef-mediated degradation of both HLA-A2 and CD4"},
      {"measurement": "degradation of CD4 (Western blot)", "setting": "HIV Nef; low dose (0.5 nM)", "value": "did not prevent degradation of CD4"},
      {"measurement": "degradation of MHC-I in Nef-expressing cells (Western blot)", "setting": "HIV Nef; low dose (0.5 nM)", "value": "MHC-I was not degraded in Nef-expressing cells"}
    ]}
  ]
}
